From ChEMBL document CHEMBL1140033 (J Med Chem, 2008)
Calls of active or inactive are those of the source. The rule behind the calls is not given here.

Experiments:
[1] = biological target: Rhodopsin (Bos taurus) (UniProt P02699); assay: Binding affinity to photoactivated rhodopsin in bovine retinal rod outer-segment membranes assessed as induction of extra receptor MII state stabilization at 250 uM by UV/visible difference spectroscopy
[2] = biological target: T1, Rhodopsin (Bos taurus, UniProt P02699); assay: Binding affinity to photoactivated rhodopsin in bovine retinal rod outer-segment membranes assessed as induction of extra receptor MII state stabilization by UV/visible difference spectroscopy
T1 sequence (P02699 whole entry): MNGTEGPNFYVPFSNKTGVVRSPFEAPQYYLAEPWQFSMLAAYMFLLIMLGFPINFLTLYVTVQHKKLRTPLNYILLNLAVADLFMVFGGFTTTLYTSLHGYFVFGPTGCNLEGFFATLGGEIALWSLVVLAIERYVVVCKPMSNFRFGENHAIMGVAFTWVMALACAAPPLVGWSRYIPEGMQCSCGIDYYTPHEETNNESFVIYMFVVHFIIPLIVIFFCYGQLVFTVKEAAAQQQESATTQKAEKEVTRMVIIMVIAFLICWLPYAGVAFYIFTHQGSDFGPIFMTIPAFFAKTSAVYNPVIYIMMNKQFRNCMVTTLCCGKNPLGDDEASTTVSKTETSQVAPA

[3] = biological target: T1, Rhodopsin; assay: Inhibition of bovine retinal rod outer-segment photoactivated rhodopsin-transducer interaction by transducer release assay

Chain of Rhodopsin (Bos taurus) (P02699 whole entry): as above

| SMILES | Activity [1] | EC50 [2] [µM] | IC50 [3] [µM] |
| --- | --- | --- | --- |
| C[C@]12CCC(=O)C=C1CC[C@@H]1[C@@H]2[C@@H](O)C[C@@]2(C)[C@H]1CC[C@]2(O)[C@@H](O)CO | Active | – | – |
| C[C@H]1[C@H](C)CC[C@]2(C(=O)O)CC[C@]3(C)C(=CC[C@@H]4[C@@]5(C)C[C@@H](O)[C@H](O)[C@@](C)(CO)[C@@H]5[C@H](O)C[C@]43C)[C@H]12 [MADECASSIC ACID] | – | 120 | 180 |
| C[C@]12CC[C@H]3[C@@H](CCC4=CC(=O)CC[C@@]43C)[C@@H]1CC[C@@H]2CCOS(=O)(=O)c1ccc(Br)cc1 | Active | – | – |
| CC1(C)CC[C@]2(C(=O)O)CC[C@]3(C)C(=CC[C@@H]4[C@@]5(C)C[C@H](O)[C@H](O)[C@@](C)(C(=O)O)[C@@H]5CC[C@]43C)[C@@H]2C1 | Active | – | – |

Further lines, results first:

| Activity [1] | EC50 [2] [µM] | IC50 [3] [µM] | SMILES |
| --- | --- | --- | --- |
| Active | – | – | CC1(C)[C@@H](O)CC[C@]2(C)[C@H]3C(=O)C=C4[C@@H]5C[C@@](C)(C(=O)O)CC[C@]5(C)CC[C@@]4(C)[C@]3(C)CC[C@@H]12 |
| Active | – | – | CC1(C)[C@@H](O)CC[C@]2(C)[C@H]3C(=O)C=C4C5C[C@@](C)(C(=O)O)CC[C@]5(C)CC[C@@]4(C)[C@]3(C)CC[C@@H]12 (single isomer, unassigned) |
| Active | – | – | CC1(C)CC[C@]2(C(=O)O)CC[C@]3(C)C(=CC[C@@H]4[C@@]5(C)CC[C@H](O)C(C)(C)[C@@H]5CC[C@]43C)[C@@H]2C1 |
| Active | – | – | C[C@H]1[C@H](C)CC[C@]2(C(=O)O)CC[C@]3(C)C(=CC[C@@H]4[C@@]5(C)CC[C@H](O)C(C)(C)[C@@H]5CC[C@]43C)[C@H]12 |
